Measured values: patent US10793580B2, “Substituted pyrazoloazepin-8-ones and their use as phosphodiesterase inhibitors” (LEO Pharma A/S, priority 2016, dated 2020)
Where two headings read alike, the source gives them in different places.

Molecular target: human PDE4D catalytic domain (Homo sapiens (Human), UniProt Q08499)
Assay: PDE4 Assay (TR-FRET, FAM-cAMP cleavage)
Assay type: biochemical
Conditions: read-out: PDE4 IC50 range
Method: The human PDE4D catalytic domain (UniProt no. Q08499 [S380-L740]) was incubated with a mixture of non-labelled cAMP (cyclic adenosine monophosphate) and fluorescein amidite (FAM) conjugated cAMP and titrated test or reference Compound. Following brief incubation the enzymatic reaction was stopped by addition of binding buffer containing nanoparticles with immobilized trivalent metal ions capable of binding 1) AMP phospho groups and 2) terbium (Tb) donor fluorophores. Subsequent excitation of the Tb donor triggers time-resolved FRET to adjacent FAM acceptor molecules resulting in light emission. In the presence of a PDE4 inhibitor, AMP generation was reduced resulting in a lower fluorescence signal. The cAMP phosphodiester is not bound by the detection system.
The results were calculated as the molar concentrations resulting in 50% inhibition of the substrate cleavage compared to controls samples, and are expressed as a range of IC50 (nM).

[1] = human PDE4D catalytic domain (UniProt Q08499 [S380-L740]), 50% inhibition of substrate cleavage

Chain of human PDE4D catalytic domain (Q08499 380-740): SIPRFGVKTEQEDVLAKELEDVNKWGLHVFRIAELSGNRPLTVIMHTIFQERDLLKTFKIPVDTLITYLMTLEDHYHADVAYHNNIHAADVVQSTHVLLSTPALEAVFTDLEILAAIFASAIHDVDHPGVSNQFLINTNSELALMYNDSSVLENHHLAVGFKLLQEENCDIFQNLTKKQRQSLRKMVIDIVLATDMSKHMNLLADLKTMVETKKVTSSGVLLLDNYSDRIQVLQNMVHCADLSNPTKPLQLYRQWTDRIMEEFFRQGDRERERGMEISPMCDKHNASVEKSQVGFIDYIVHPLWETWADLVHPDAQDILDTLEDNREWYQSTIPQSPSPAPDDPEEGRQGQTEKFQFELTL

Compound	IC50 [1]	IC50 (Table 16, Examples 277-296)
CCn1nc(CCCOC(=O)c2ccc(OC)cc2C(F)(F)F)c2c1C(=O)NCC1(CCOCC1)C2 [Example 81, 3-(1-ethyl-8-oxo-spiro[6,7-dihydro-4H-pyrazolo[3,4-c]azepine-5,4′-tetrahydro-pyran]-3-yl)propyl 4-methoxy-2-(trifluoromethyl)benzoate]	< 100 nM	
CCn1nc(CCCOC(=O)c2cc(Cl)cc(C(F)(F)F)c2)c2c1C(=O)NCC1(CCOCC1)C2 [Example 90, 3-(1-ethyl-8-oxo-spiro[6,7-dihydro-4H-pyrazolo[3,4-c]azepine-5,4′-tetrahydro-pyran]-3-yl)propyl 3-chloro-5-(trifluoromethyl)benzoate]	< 100 nM	
CCn1nc(CCCCOC(=O)c2ccc(OC)cc2)c2c1C(=O)NCC1(CCOCC1)C2 [Example 125, 4-(1-ethyl-8-oxo-spiro[6,7-dihydro-4H-pyrazolo[3,4-c]azepine-5,4′-tetrahydropyran]-3-yl)butyl 4-methoxybenzoate]	< 100 nM	
CCn1nc(CC(C)(C)COC(=O)c2ccc(S(C)(=O)=O)cc2)c2c1C(=O)NCC1(CCOCC1)C2 [Example 202, [3-(1-ethyl-8-oxo-spiro[6,7-dihydro-4H-pyrazolo[3,4-c]azepine-5,4′-tetrahydropyran]-3-yl)-2,2-dimethyl-propyl] 4-methylsulfonylbenzoate]	< 100 nM	
CCn1nc(CCCOC(=O)c2cc(F)cc(C(F)(F)F)c2)c2c1C(=O)NCC1(CCOCC1)C2 [Example 72, 3-(1-ethyl-8-oxo-spiro[6,7-dihydro-4H-pyrazolo[3,4-c]azepine-5,4′-tetrahydro-pyran]-3-yl)propyl 3-fluoro-5-(trifluoromethyl)benzoate]	< 100 nM	
CCn1nc(C[C@@H](C)COC(=O)c2cccc(C(=O)N3CCN(C)CC3)c2)c2c1C(=O)NCC1(CCOCC1)C2 [Example 184, [(2R)-3-(1-ethyl-8-oxo-spiro[6,7-dihydro-4H-pyrazolo[3,4-c]azepine-5,4′-tetrahydropyran]-3-yl)-2-methyl-propyl] 3-(4-methylpiperazine-1-carbonyl)benzoate]	< 100 nM	
CCn1nc(CCCOC(=O)C2CN(C(C)=O)C2)c2c1C(=O)NCC1(CCOCC1)C2 [Example 252, 3-(1-ethyl-8-oxo-spiro[6,7-dihydro-4H-pyrazolo[3,4-c]azepine-5,4′-tetrahydropyran]-3-yl)propyl 1-acetylazetidine-3-carboxylate]	100 to 500 nM	
CCn1nc(CCOC(=O)C2CCOCC2)c2c1C(=O)NCC1(CCOCC1)C2 [Example 276, 2-(1-ethyl-8-oxo-spiro[6,7-dihydro-4H-pyrazolo[3,4-c]azepine-5,4′-tetrahydropyran]-3-yl)ethyl tetrahydropyran-4-carboxylate]	100 to 500 nM	
CCn1nc(C[C@@H](C)COC(=O)c2cocn2)c2c1C(=O)NCC1(CCOCC1)C2 [Example 277, [(2R)-3-(1-ethyl-8-oxo-spiro[6,7-dihydro-4H-pyrazolo[3,4-c]azepine-5,4′-tetrahydropyran]-3-yl)-2-methyl-propyl] oxazole-4-carboxylate]		< 100 nM
CCn1nc(CCCOC(=O)c2cn(C)cn2)c2c1C(=O)NCC1(CCOCC1)C2 [Example 239, 3-(1-ethyl-8-oxo-spiro[6,7-dihydro-4H-pyrazolo[3,4-c]azepine-5,4′-tetrahydropyran]-3-yl)propyl 1-methylimidazole-4-carboxylate]	< 100 nM	
CCn1nc(C[C@@H](C)COC(=O)c2ccc(C(=O)N(C)C)cc2)c2c1C(=O)NCC1(CCOCC1)C2 [Example 171, [(2R)-3-(1-ethyl-8-oxo-spiro[6,7-dihydro-4H-pyrazolo[3,4-c]azepine-5,4′-tetrahydropyran]-3-yl)-2-methyl-propyl] 4-(di-methylcarbamoyl)benzoate]	< 100 nM	
CCn1nc(CCCOC(=O)c2cccc(C(F)(F)F)c2Cl)c2c1C(=O)NCC1(CCOCC1)C2 [Example 85, 3-(1-ethyl-8-oxo-spiro[6,7-dihydro-4H-pyrazolo[3,4-c]azepine-5,4′-tetrahydropyran]-3-yl)propyl 2-chloro-3-(trifluoromethyl)benzoate]	< 100 nM	
CCn1nc(CCCCOC(=O)c2ccc(C(=O)N(C)C)cc2)c2c1C(=O)NCC1(CCOCC1)C2 [Example 129, 4-(1-ethyl-8-oxo-spiro[6,7-dihydro-4H-pyrazolo[3,4-c]azepine-5,4′-tetrahydropyran]-3-yl)butyl 4-(dimethyl-carbamoyl)benzoate]	< 100 nM	
CCn1nc(CCCCOC(=O)c2ccc(S(=O)(=O)N(C)C)cc2)c2c1C(=O)NCC1(CCOCC1)C2 [Example 132, 4-(1-ethyl-8-oxo-spiro[6,7-dihydro-4H-pyrazolo[3,4-c]azepine-5,4′-tetrahydropyran]-3-yl)butyl 4-(dimethyl-sulfamoyl)benzoate]	< 100 nM	
CCc1nc(C(=O)OCCCc2nn(CC)c3c2CC2(CCOCC2)CNC3=O)co1 [Example 251, 3-(1-ethyl-8-oxo-spiro[6,7-dihydro-4H-pyrazolo[3,4-c]azepine-5,4′-tetrahydropyran]-3-yl)propyl 2-ethyloxazole-4-carboxylate]	< 100 nM	
CCn1nc(C[C@@H](C)COC(=O)[C@H]2CC[C@H](O)CC2)c2c1C(=O)NCC1(CCOCC1)C2 [Example 146, [(2R)-3-(1-ethyl-8-oxo-spiro[6,7-dihydro-4H-pyrazolo[3,4-c]azepine-5,4′-tetrahydropyran]-3-yl)-2-methyl-propyl] 4-hydroxy-cyclohexanecarboxylate]	< 100 nM	
CCn1nc(CCCOC(=O)c2ccn(C)n2)c2c1C(=O)NCC1(CCOCC1)C2 [Example 237, 3-(1-ethyl-8-oxo-spiro[6,7-dihydro-4H-pyrazolo[3,4-c]azepine-5,4′-tetrahydropyran]-3-yl)propyl 1-methylpyrazole-3-carboxylate]	< 100 nM	
CCn1nc(C[C@@H](C)COC(=O)c2ccccc2C)c2c1C(=O)NCC1(CCOCC1)C2 [Example 141, [(2R)-3-(1-ethyl-8-oxo-spiro[6,7-dihydro-4H-pyrazolo[3,4-c]azepine-5,4′-tetrahydropyran]-3-yl)-2-methyl-propyl] 2-methylbenzoate]	< 100 nM	
CCn1nc(C[C@@H](C)COC(=O)c2cnn(C)c2)c2c1C(=O)NCC1(CCOCC1)C2 [Example 279, [(2R)-3-(1-ethyl-8-oxo-spiro[6,7-dihydro-4H-pyrazolo[3,4-c]azepine-5,4′-tetrahydropyran]-3-yl)-2-methyl-propyl] 1-methylpyrazole-4-carboxylate]		< 100 nM
CCn1nc(CCCOC(=O)c2cccc(F)c2F)c2c1C(=O)NCC1(CCOCC1)C2 [Example 24, 3-(1-ethyl-8-oxo-spiro[6,7-dihydro-4H-pyrazolo[3,4-c]azepine-5,4′-tetrahydropyran]-3-yl)propyl 2,3-difluorobenzoate]	< 100 nM	
CCn1nc(C[C@@H](C)COC(=O)C2CCN(C)CC2)c2c1C(=O)NCC1(CCOCC1)C2 [Example 292, [(2R)-3-(1-ethyl-8-oxo-spiro[6,7-dihydro-4H-pyrazolo[3,4-c]azepine-5,4′-tetrahydropyran]-3-yl)-2-methyl-propyl] 1-methylpiperidine-4-carboxylate]		100 to 500 nM
CCn1nc(CCCOC(=O)c2ccc(F)cc2)c2c1C(=O)NCC1(CCOCC1)C2 [Example 10, 3-(1-ethyl-8-oxo-spiro[6,7-dihydro-4H-pyrazolo[3,4-c]azepine-5,4′-tetrahydropyran]-3-yl)propyl 4-fluorobenzoate]	< 100 nM	
